Columns and labels:
Assay type in all cases: functional
Mus musculus [1] = organism: Mus musculus; assay: Inhibitory concentration on nitric oxide production in lipopolysaccharide-activated mouse peritoneal macrophages
Mus musculus [2] = organism: Mus musculus; assay: Inhibitory effect on nitric oxide production in lipopolysaccharide activated mouse peritoneal macrophages at 3 uM
Mus musculus [3] = organism: Mus musculus; assay: Inhibitory effect on nitric oxide production in lipopolysaccharide activated mouse peritoneal macrophages at 10 uM

| IC50 (Mus musculus [1]) | Structure (SMILES) | inhibition at 3 µM (Mus musculus [2]) | inhibition at 10 µM (Mus musculus [3]) |
| --- | --- | --- | --- |
| 28 µM | CC(C)[C@@H]1CCC(=O)C2=C1[C@H](O)[C@](C)(O)CC2 [OXYPHYLLENODIOL A] | 11.8% |  |
| > 100 µM | C[C@@]12CCC(=O)C=C1[C@](C)(O)[C@H](O)CC2 [OXYPHYLLENONE B] | -8.1% | 0.4% |
| 35 µM | C[C@@]12CCC(=O)C=C1[C@@](C)(O)[C@H](O)CC2 [OXYPHYLLENONE A] | 1.6% | -2.9% |
|  | CNC(=N)NCCC[C@H](N)C(=O)O [TILARGININE] | 2% |  |
| > 100 µM | CC(C)[C@H]1CCC(=O)C2=C1[C@H](O)[C@](C)(O)CC2 [OXYPHYLLENODIOL B] | -4.2% | -0.4% |
